Common to all, as to type: cell-based
Experiment [1] concerns NSCLC A549 lung cancer cells. Put plainly: XTT assay, cell proliferation after 72 hours incubation, IC50. How it is done: Example 10 (see also FIG. 10) is a study to determine the effect of the combination of calcium blockers on the proliferation of cancer cells. NSCLC A549 lung cancer cells were incubated with various concentrations of a combination of calcium blockers ranging from 1 μM to 50 μM. […] An XTT assay was then performed. The cell proliferation was then calculated. Results are representative of at least three independent experiments. IC50 was calculated from the % inhibition data.
(In general: Tetrazolium assays rely on reduction of a dye to a coloured formazan, in cell work by metabolically active cells.)

The test system of experiment [2] is A549 lung cancer cells. Nature of the experiment: XTT assay, cell proliferation 48 hours after addition. The settings on record: increasing concentrations. Here is the method:
An XTT assay was performed 48 hours after the addition of nitrendipine at increasing concentrations. The cell proliferation was then calculated. Results are representative of at least three independent experiments. The results are illustrated in FIG. 1B. […] Without limitation by theory, it is theorized that nitrendipine lethally flooded the cells with calcium at the noted concentrations.
An XTT assay was performed 48 hours after the addition of nicardipine at increasing concentrations. The cell proliferation was then calculated. Results are representative of at least three independent experiments. The results are illustrated in FIG. 2B. […] Without limitation by theory, it is theorized that the nicardipine-initiated block of the entry of extracellular free calcium inhibits the cell's ability to undergo or successfully finish cytokinesis, and this may lead to cell death.
An XTT assay was performed 48 hours after the addition of nisoldipine at increasing concentrations. The cell proliferation was then calculated. Results are representative of at least three independent experiments. The results are illustrated in FIG. 4B. […] Without limitation by theory, it is theorized that the nisoldipine-initiated block of the entry of extracellular free calcium inhibits the cell's ability to undergo or successfully finish cytokinesis and this may lead to cell death.
The cell proliferation was then calculated. Results are representative of at least three independent experiments. The results are illustrated in FIG. 7B. […] Without limitation by theory, it is theorized that the loperamide-initiated block of the entry of extracellular free calcium inhibits the cell's ability to undergo or successfully finish cytokinesis, and this may lead to cell death.

Experiment [3] has as its system A549 lung cancer cells. Put plainly: Intracellular free calcium, Fura-2-AM fluorescence measurement.
Protocol: The intracellular free calcium measurement was done using Fura-2-AM fluorescence measurement. […] Ionomycin was used as the positive control for stimulation of calcium entry. Calcium was removed from the medium at the end of each experiment via addition of EGTA or replacement of the medium with calcium free medium. The calculation of the absolute calcium concentration was performed using a standard calcium curve. An average of 15 cells is shown.
The intracellular free calcium measurement was done using Fura-2-AM fluorescence measurement. […] The calculation of the absolute calcium concentration was performed using a standard calcium curve. An average of 15 cells is shown.
The intracellular free calcium measurement was done using Fura-2-AM fluorescence measurement. […] Ionomycin was used as the positive control for stimulation of calcium entry.
The test system of experiment [4] is NSCLC A549 lung cancer cells. Put plainly: XTT assay, cell proliferation after 24 hours incubation. How it is done:
Example 6 was a study to determine the effect of treatment with nitrendipine and the dihydropyridine of Formula IV above on the proliferation of cancer cells. NSCLC A549 lung cancer cells were incubated with various concentrations of nitrendipine and the dihydropyridine of Formula IV ranging from 1 μM to 100 μM. 5000 cells were plated in RPMI medium per well and incubated with either the individual drugs for 24 hours. An XTT assay was then performed. The cell proliferation was then calculated. FIG. 6 is a graphical representation of the results.
Example 8 was a study to determine the effect of the combination of calcium blockers on the proliferation of cancer cells. NSCLC A549 lung cancer cells were incubated with various concentrations of a combination of calcium blockers ranging from 1 μM to 50 μM. In this specific example, the combination of loperamide and the dihydropyridine, nitrendipine, was used. […] An XTT assay was then performed. The cell proliferation was then calculated. Results are representative of at least three independent experiments. FIG. 8 is a graphical representation of the results.
Example 9 is a study to determine the effect of the combination of calcium blockers on the proliferation of cancer cells. NSCLC A549 lung cancer cells were incubated with various concentrations of a combination of calcium blockers ranging from 1 μM to 50 μM. In this specific example, the combination of loperamide and the dihydropyridine, nicardipine, was used. […] An XTT assay was then performed. The cell proliferation was then calculated. Results are representative of at least three independent experiments. FIG. 9 is a graphical representation of the results.

[5] abbreviates: Homo sapiens, A549, compound alone plus DMSO, 72 hours, read-out: Plus DMSO (Control), IC-50.
Setting [6] is: read-out: Plus Loperamide, IC-50, in combination with loperamide (5 uM per FIG. 10), 72 hours.
[7] abbreviates: compound alone plus DMSO, 72 hours.

Molecules are shown by their SMILES. Like-named read-outs stand apart in the source and are kept apart here.

The results in this text go back to patent US20200129492A1, “TREATMENT OF CANCER WITH DIHYDROPYRIDINES” (MENRI GROUP LTD., priority 2017, published 2020).

For the compound `COC(=O)C1=C(C)NC(C)=C(C(=O)OC(C)(C)CN(C)CCC(c2ccccc2)c2ccccc2)C1c1cccc([N+](=O)[O-])c1` (racemic) [Lercanidipine], the IC50 was found to be 7.7 µM in experiment [1] (setting [5]) and 3.95 µM in experiment [1] (setting [6]).
For the compound `CCOC(=O)C1=C(C)NC(C)=C(C(=O)OC)C1c1cccc([N+](=O)[O-])c1` (racemic) [Nitrendipine, (RS)-3-Ethyl 5-methyl 2,6-dimethyl-4-(m-nitrophenyl)-1,4-dihydropyridine-3,5-dicarboxylate], the “percentage of cell growth” value with A549 lung cancer cells [2] is “decreases as the concentration of nitrendipine is increased”. For the same compound, the “effect on intracellular free calcium” value is “functions as an agonist for the entry of extracellular calcium” in the experiment with A549 lung cancer cells [3] (1 μM and 5 μM treatments); “floods the cells with calcium” with A549 lung cancer cells [3] (consecutive treatments with nitrendipine and nicardipine, 20 μM each). In addition, the “concentration of intracellular calcium versus positive control (ionomycin)” value in the experiment on A549 lung cancer cells [3] (5 μM treatment) is given as “greater than that of the positive control”. The Avg. % proliferation in experiment [4] (Example 6, 1 μM) is reported as 86.24%; in experiment [4] (Example 6, 5 μM), 87.19%; in experiment [4] (Example 6, 10 μM), 75.97%; in experiment [4] (Example 6, 50 μM), 52.21%; in experiment [4] (Example 6, 100 μM) it was 24.42%; in experiment [4] (Example 8, 1 μM) it was 102.33%. Moreover, the Avg. % proliferation in experiment [4] (Example 8, 5 μM) is recorded as 93.35%; in experiment [4] (Example 8, 10 μM) it was 102.58%; in experiment [4] (Example 8, 50 μM), 71.43%.
Consider `CCOC(=O)C1=C(COCCN)NC(C)=C(C(=O)OC)C1c1ccccc1Cl` (centres unmarked) [Amlodipine], for which the IC50 in experiment [1] (setting [5]) amounted to 22 µM.
For `CC1=C(C(=O)OC(C)C)C(c2cccc([N+](=O)[O-])c2)C(C(=O)OC2CN(C(c3ccccc3)c3ccccc3)C2)=C(N)N1` (centres unmarked) [Azelnidipine], the IC50 amounted to 8.5 µM in experiment [1] (setting [5]) and 4.8 µM in experiment [1] (setting [6]).
Regarding `COC(=O)C1=C(C)NC(C)=C(C(=O)OC2CCCN(Cc3ccccc3)C2)C1c1cccc([N+](=O)[O-])c1` (centres unmarked) [Benidipine], the IC50 in experiment [1] (setting [5]) came out at 18 µM.
Take `CCCC(=O)OCOC(=O)C1=C(C)NC(C)=C(C(=O)OC)C1c1cccc(Cl)c1Cl` (centres unmarked) [Clevidipine]: in experiment [1] (setting [5]), the IC50 was found to be 23 µM.
In the case of `COCCOC(=O)C1=C(C)NC(C)=C(C(=O)OC/C=C/c2ccccc2)C1c1cccc([N+](=O)[O-])c1` (centres unmarked) [Clinidipine], in experiment [1] (read-out: Plus DMSO (Control), IC-50), the IC50 came out at 41 µM.
Turning to `COc1ccc([C@@H]2Sc3ccccc3N(CCN(C)C)C(=O)[C@@H]2OC(C)=O)cc1` [Diltiazem], the “Plus DMSO (Control), IC-50” value in experiment [1] (setting [7]) is reported as “No Activity”.
As to `CC1=C(C(=O)OCCN(Cc2ccccc2)c2ccccc2)C(c2cccc([N+](=O)[O-])c2)C(P2(=O)OCC(C)(C)CO2)=C(C)N1` (centres unmarked) [Efonidipine], in experiment [1] (setting [5]), the IC50 stood at 10.2 µM.
For the compound `CCOC(=O)C1=C(C)NC(C)=C(C(=O)OC)C1c1cccc(Cl)c1Cl` (centres unmarked) [Felodipine], the IC50 in experiment [1] (setting [5]) worked out at 26 µM.
Take `CCOC(=O)C1=C(C)NC(C)=C(C(=O)OC)C1c1ccccc1` (centres unmarked) [Formula IV, 5-O-ethyl 3-O-methyl 2,6-dimethyl-4-phenyl-1,4-dihydropyridine-3,5-dicarboxylate]: the “effect on intracellular free calcium” value with A549 lung cancer cells [3] (5 μM and 50 μM treatments) is on record as “blocks the influx of extracellular calcium”. In addition, the Avg. % proliferation in experiment [4] (Example 6, 5 μM) was found to be 96.4%; in experiment [4] (Example 6, 10 μM), 104.2%; in experiment [4] (Example 6, 50 μM), 79.06%; in experiment [4] (Example 6, 100 μM) it was 67.8%.
On to `COC(=O)C1=C(C)NC(C)=C(C(=O)OC(C)C)C1c1cccc2nonc12` (centres unmarked) [Isradipine], for which the IC50 in experiment [1] (setting [5]) was determined as 26 µM.
The same measure, in the same setting: as for `CCOC(=O)C1=C(C)NC(C)=C(C(=O)OCC)C1c1ccccc1/C=C/C(=O)OC(C)(C)C` [Lacidipine], the figure is 16 µM.
For `CN(C)C(=O)C(CCN1CCC(O)(c2ccc(Cl)cc2)CC1)(c1ccccc1)c1ccccc1` [Loperamide, 4-[4-(4-Chlorophenyl)-4-hydroxypiperidin-1-yl]-N,N-dimethyl-2,2-diphenylbutanamide], the “percentage of cell growth” value in the experiment on A549 lung cancer cells [2] is given as “decreases as the concentration of loperamide is increased”. For the same compound, the “effect on intracellular free calcium” value in the experiment on A549 lung cancer cells [3] (5 μM and 50 μM treatments) was “blocks the influx of extracellular calcium”. The Avg. % proliferation amounted to 98.07% in experiment [4] (Example 8, 1 μM); 99.77% in experiment [4] (Example 8, 5 μM); 96.09% in experiment [4] (Example 8, 10 μM); 34.04% in experiment [4] (Example 8, 50 μM); 92.73% in experiment [4] (Example 9, 1 μM); 86.97% in experiment [4] (Example 9, 5 μM). The Avg. % proliferation is on record as 90.33% in experiment [4] (Example 9, 10 μM) and 32.03% in experiment [4] (Example 9, 50 μM).
For `COC(=O)C1=C(C)NC(C)=C(C(=O)OCCN2CCN(C(c3ccccc3)c3ccccc3)CC2)C1c1cccc([N+](=O)[O-])c1` (centres unmarked) [Manidipine], the IC50 in experiment [1] (setting [5]) was 8.2 µM.
`COC(=O)C1=C(C)NC(C)=C(C(=O)OCCN(C)Cc2ccccc2)C1c1cccc([N+](=O)[O-])c1` (centres unmarked) [Nicardipine, 2-[benzyl(methyl)amino]ethylmethyl-2,6-dimethyl-4-(3-nitrophenyl)-1,4-dihydropyridine-3,5-dicarboxylate]: the IC50 worked out at 13.7 µM in experiment [1] (setting [5]) and 6.7 µM in experiment [1] (setting [6]). Also, the Avg. % proliferation in experiment [4] (Example 9, 1 μM) is 99.90%; in experiment [4] (Example 9, 5 μM), 100.23%; in experiment [4] (Example 9, 10 μM) it was 86.20%; in experiment [4] (Example 9, 50 μM), 32.97%.
Consider `COC(=O)C1=C(C)NC(C)=C(C(=O)OC)C1c1ccccc1[N+](=O)[O-]` [Nifedipine], for which the “Plus DMSO (Control), IC-50” value in experiment [1] (setting [7]) is reported as “No Activity”.
In the case of `COC(=O)C1=C(C)NC(C)=C(C(=O)OCCCN2CCC(c3ccccc3)(c3ccccc3)CC2)[C@H]1c1cccc([N+](=O)[O-])c1` [Niguldipine], the IC50 in experiment [1] (Homo sapiens, A549, 72 h, read-out: Plus DMSO (Control), IC-50) is 5.37 µM; in experiment [1] (read-out: Plus Loperamide, IC-50) it was 3.12 µM.
Regarding `COC(=O)C1=C(C#N)NC(C)=C(C(=O)OC(C)C)C1c1cccc([N+](=O)[O-])c1` (centres unmarked) [Nilvadipine], the IC50 in experiment [1] (setting [5]) was 17.6 µM.
For `COCCOC(=O)C1=C(C)NC(C)=C(C(=O)OC(C)C)C1c1cccc([N+](=O)[O-])c1` (centres unmarked) [Nimodipine], the “Plus DMSO (Control), IC-50” value in experiment [1] (setting [7]) is recorded as “No Activity”.
Consider `COc1ccc(CCN(C)CCCC(C#N)(c2ccc(OC)c(OC)c2)C(C)C)cc1OC` (centres unmarked) [Verapamil], for which the “Plus DMSO (Control), IC-50” value in experiment [1] was “No Activity”.
As for `COC(=O)C1=C(C)NC(C)=C(C(=O)OCC(C)C)C1c1ccccc1[N+](=O)[O-]` (centres unmarked) [nisoldipine, isobutyl methyl 2,6-dimethyl4-(2-nitrophenyl)-1,4-dihydropyridine-3,5-dicarboxylate], in the experiment on A549 lung cancer cells [2], the “percentage of cell growth” value was “decreases as the concentration of nisoldipine is increased”. For the same compound, the “effect on intracellular free calcium” value in the experiment on A549 lung cancer cells [3] (5 μM and 10 μM treatments) was “blocks the influx of extracellular calcium”.
